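96-well plates; 48 h exposure; 5 concentrations. Endpoints by linear interpolation between flanking doses. Not reached: highest tested concentration assigned. Here, GI50 denotes the concentration required for 50% inhibition of growth.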 The source made the active and inactive calls. Rule as the data show it: active = GI50 up to about 1.1 µM and inactive = higher.
What was measured:
Test in all cases: NCI tumour cell line growth inhibition, 48 h
A549 = system: A549
MCF7 = system: MCF7
HL-60 = system: HL-60
DU-145 = system: DU-145
SNB-19 = system: SNB-19
HT-29 = system: HT-29
EKVX = system: EKVX
RXF 393 = system: RXF 393
SK-OV-3 = system: SK-OV-3
OVCAR-8 = system: OVCAR-8
HOP-92 = system: HOP-92
SR = system: SR
IGROV-1 = system: IGROV-1
M14 = system: M14
SNB-75 = system: SNB-75
K562 = system: K562
NCI-H460 = system: NCI-H460
SK-MEL-28 = system: SK-MEL-28

Row | Compound | GI50 (A549) | GI50 (MCF7) | GI50 (HL-60) | GI50 (DU-145) | GI50 (SNB-19) | GI50 (HT-29) | GI50 (EKVX) | GI50 (RXF 393) | GI50 (SK-OV-3) | GI50 (OVCAR-8) | GI50 (HOP-92) | GI50 (SR) | GI50 (IGROV-1) | GI50 (M14) | GI50 (SNB-75) | GI50 (K562) | GI50 (NCI-H460) | GI50 (SK-MEL-28)
1 | O=C(C=P(c1ccccc1)(c1ccccc1)c1ccccc1)c1ccccc1-c1ccccc1C(=O)C=P(c1ccccc1)(c1ccccc1)c1ccccc1 | 0.0128 µM (active) | < 0.01 µM (active) | < 0.01 µM (active) | 0.0184 µM (active) | 0.0288 µM (active) | 0.0236 µM (active) | 0.185 µM (active) | 0.0208 µM (active) | 0.0216 µM (active) | < 0.01 µM (active) | 0.0127 µM (active) | 0.0143 µM (active) | < 0.015 µM (active) | 0.0352 µM (active) | 0.0206 µM (active) | < 0.01 µM (active) | 0.0248 µM (active) | 0.178 µM (active)
2 | CCN(CC)CC[S+]([O-])c1c2cc(OC)ccc2nc2ccc(OC)cc12 (stereo not drawn) | 24.9 µM (inactive) | 2.42 µM (inactive) | 3.67 µM (inactive) | 1.91 µM (inactive) | 22.7 µM (inactive) | 3.44 µM (inactive) | 15 µM (inactive) | 7.33 µM (inactive) | 21.6 µM (inactive) | 3.83 µM (inactive) | 3.28 µM (inactive) | 2.72 µM (inactive) | 2.54 µM (inactive) | 9.55 µM (inactive) | 19.6 µM (inactive) | 5.78 µM (inactive) | 27.7 µM (inactive) | 14.7 µM (inactive)
3 | CCCCCCCC(CC(=O)NC(CO)C(=O)NC(CO)CC(C)C)OC(=O)CC(CCCCCCC)OC(=O)CC(CCCCCCC)OC1OC(C)C(O)C(OC2OC(C)C(O)C(OC(C)=O)C2O)C1O (stereo not drawn) | 12.5 µM (inactive) | 11.9 µM (inactive) | 5.69 µM (inactive) | 10.4 µM (inactive) | 6.43 µM (inactive) | 7.8 µM (inactive) | 15.3 µM (inactive) | 8.34 µM (inactive) | 17 µM (inactive) | 13.9 µM (inactive) | 10.9 µM (inactive) | 3.27 µM (inactive) | 12.3 µM (inactive) | 10.7 µM (inactive) | 5.56 µM (inactive) | 12.4 µM (inactive) | 13.3 µM (inactive) | 12.2 µM (inactive)
4 | Cc1ccc(N2CCN(CCC(=O)O)CC2)cc1 | > 100 µM (inactive) | > 100 µM (inactive) | 0.834 µM (active) | > 100 µM (inactive) | > 100 µM (inactive) | > 100 µM (inactive) | > 100 µM (inactive) | > 100 µM (inactive) | > 100 µM (inactive) | > 100 µM (inactive) | > 100 µM (inactive) | 16.9 µM (inactive) | > 100 µM (inactive) | > 100 µM (inactive) | > 100 µM (inactive) | 2.94 µM (inactive) | > 100 µM (inactive) | > 100 µM (inactive)
5 | O=S(=O)(/C=C/C=C/[S+]([O-])c1ccccc1)c1ccccc1 (stereo not drawn) | > 10 µM (inactive) | 0.887 µM (active) | 0.327 µM (active) | > 4.42 µM (inactive) | > 10 µM (inactive) | 2.21 µM (inactive) | > 10 µM (inactive) | 1.58 µM (inactive) | > 10 µM (inactive) | 1.7 µM (inactive) | 1.96 µM (inactive) | 0.877 µM (active) | > 5.41 µM (inactive) | 0.685 µM (active) | 4.66 µM (inactive) | 0.902 µM (active) | > 10 µM (inactive) | 1.98 µM (inactive)
6 | Cc1cc2ccccc2oc(=O)/c1=N\Nc1ccccc1 | 74.3 µM (inactive) | 83.2 µM (inactive) | > 100 µM (inactive) | > 100 µM (inactive) | 36.2 µM (inactive) | 64.6 µM (inactive) | 37.2 µM (inactive) | 35.2 µM (inactive) | 21.5 µM (inactive) | 28.8 µM (inactive) | 73.8 µM (inactive) | > 100 µM (inactive) | 25.8 µM (inactive) | > 100 µM (inactive) | 20.9 µM (inactive) | 14.5 µM (inactive) | 70 µM (inactive) | > 100 µM (inactive)
7 | COc1cc(OC)c(/C=N\Nc2nc3ccccc3c(=O)n2-c2ccccc2)c(OC)c1 | 31.4 µM (inactive) | > 47.1 µM (inactive) | 33 µM (inactive) | 31.3 µM (inactive) | 24 µM (inactive) | 24.5 µM (inactive) | 26.9 µM (inactive) | 23.7 µM (inactive) | 24.9 µM (inactive) | 28.7 µM (inactive) | 24.8 µM (inactive) | 36.6 µM (inactive) | 40.6 µM (inactive) | 27.3 µM (inactive) | 24.9 µM (inactive) | 33 µM (inactive) | 21.7 µM (inactive) | 27.4 µM (inactive)
8 | COc1ccc(/C=C(/c2ccccc2)c2c(C)cc(C)c(/C(=C\c3ccc(OC)cc3)c3ccccc3)c2/N=N/c2cc(C)cc(C)c2)cc1 | 14.6 µM (inactive) | 9.91 µM (inactive) | 10.3 µM (inactive) | 25.6 µM (inactive) | 15.5 µM (inactive) | 9.71 µM (inactive) | 30 µM (inactive) | 32.3 µM (inactive) | 41 µM (inactive) | 17.9 µM (inactive) | 33.6 µM (inactive) | 63.5 µM (inactive) | 14.4 µM (inactive) | 44.6 µM (inactive) | 6.92 µM (inactive) | 11.7 µM (inactive) | 15.5 µM (inactive) | > 100 µM (inactive)
9 | Cn1c2ccccc2c2c(=S)c3ccccc3ccc21 | 71.4 µM (inactive) | 56.8 µM (inactive) | > 100 µM (inactive) | 88.9 µM (inactive) | > 100 µM (inactive) | 63.4 µM (inactive) | 85.9 µM (inactive) | > 100 µM (inactive) | > 100 µM (inactive) | 56.5 µM (inactive) | > 100 µM (inactive) | > 100 µM (inactive) | 81.8 µM (inactive) | > 100 µM (inactive) | 24.6 µM (inactive) | 43.5 µM (inactive) | > 100 µM (inactive) | > 100 µM (inactive)
10 | C(=N\NC1=NCCN1)/c1cccc2cc3ccncc3nc12 | 6.76 µM (inactive) | 3.16 µM (inactive) | 1.04 µM (active) | 7.23 µM (inactive) | 9.53 µM (inactive) | 1.71 µM (inactive) | 2.86 µM (inactive) | 2.77 µM (inactive) | 11.3 µM (inactive) | 1.93 µM (inactive) | 1 µM (active) | 1.08 µM (active) | 3.24 µM (inactive) | 12.6 µM (inactive) | 0.259 µM (active) | 1.36 µM (inactive) | 4.36 µM (inactive) | 10.1 µM (inactive)
11 | COc1ccc(/C=C2\CCC(CNc3cc(C)on3)C2=O)cc1 (stereo not drawn) | > 88.7 µM (inactive) | > 100 µM (inactive) | > 21.5 µM (inactive) | > 83.6 µM (inactive) | 64.4 µM (inactive) | > 100 µM (inactive) | > 100 µM (inactive) | > 21.5 µM (inactive) | > 92.5 µM (inactive) | > 100 µM (inactive) | > 100 µM (inactive) | > 100 µM (inactive) | 98.2 µM (inactive) | > 100 µM (inactive) | 29.4 µM (inactive) | > 100 µM (inactive) | > 78.5 µM (inactive) | > 100 µM (inactive)
12 | CC/C=C/C(/C=C/C[C@]1(CC)C[C@H](CC)[C@H](CC(=O)O)OO1)CC (stereo partly drawn) | 1.68 µM (inactive) | 2.51 µM (inactive) | 2.16 µM (inactive) | 1.85 µM (inactive) | 5.69 µM (inactive) | 1.84 µM (inactive) | 1.76 µM (inactive) | 2.19 µM (inactive) | 4.23 µM (inactive) | 2.9 µM (inactive) | 1.99 µM (inactive) | 0.421 µM (active) | 0.353 µM (active) | 8.49 µM (inactive) | 6.41 µM (inactive) | 3.04 µM (inactive) | 1.96 µM (inactive) | 2.23 µM (inactive)
13 | CC(C)=C/C(CC(O)(C(F)(F)F)C(F)(F)F)=N\O | > 100 µM (inactive) | > 100 µM (inactive) | > 100 µM (inactive) | > 100 µM (inactive) | > 100 µM (inactive) | > 100 µM (inactive) | > 100 µM (inactive) | > 100 µM (inactive) | > 100 µM (inactive) | > 100 µM (inactive) | > 100 µM (inactive) | > 100 µM (inactive) | > 100 µM (inactive) | > 100 µM (inactive) | > 100 µM (inactive) | > 100 µM (inactive) | > 100 µM (inactive) | > 100 µM (inactive)
14 | C=C(C)CCC1C=[N+]([O-])OC(C)(C)C1(C)C (stereo not drawn) | 49.3 µM (inactive) | 73.5 µM (inactive) | 30.1 µM (inactive) | > 100 µM (inactive) | – | > 100 µM (inactive) | > 100 µM (inactive) | > 100 µM (inactive) | > 100 µM (inactive) | > 100 µM (inactive) | > 100 µM (inactive) | > 100 µM (inactive) | > 100 µM (inactive) | > 100 µM (inactive) | > 100 µM (inactive) | > 100 µM (inactive) | > 100 µM (inactive) | –
15 | Nc1ccccc1.O=C(O)C(C(F)(F)F)C(F)(F)F | > 100 µM (inactive) | > 100 µM (inactive) | > 100 µM (inactive) | 99.5 µM (inactive) | > 100 µM (inactive) | > 100 µM (inactive) | > 100 µM (inactive) | > 100 µM (inactive) | > 100 µM (inactive) | > 100 µM (inactive) | > 100 µM (inactive) | > 100 µM (inactive) | > 100 µM (inactive) | > 100 µM (inactive) | > 100 µM (inactive) | > 100 µM (inactive) | > 100 µM (inactive) | > 100 µM (inactive)

Source: ChEMBL document CHEMBL1201862, “PubChem BioAssay data set” (2004)
